Reference: patent publication US9073967B2, “High salt-resistance antibacterial peptide and method for producing the same” (NATIONAL TSING HUA UNIVERSITY, priority 2011, dated 2015)
Where a SMILES comes first, the peptide text is derived from it.

Columns and labels:
[1] = tested on: E. coli ATCC 25922; experiment: Antibacterial ability in different MgCl2 concentration; format: cell-based
[2] = tested on: P. arugenosa ATCC 27853; experiment: as above; format: cell-based
[3] = tested on: S. aureus ATCC 19636; experiment: Antibacterial ability in different salt (NaCl) concentration, LYM medium
[4] = tested on: P. arugenosa ATCC 27853; experiment: as above
[5] = tested on: Eschericha coli strains ATCC 25922; experiment: Antibacterial activity assay, NCCLS microdilution MIC in MHB; format: cell-based
Excerpt: (§1) For testing the antibacterial ability of Phe-P113, Nal-P113 and Bip-P113 in different salt concentration, we use Antibacterial activity assay to perform the test. Three bacteria strains are used: Eschericha coli strains (ATCC 25922), Staphylococcus aureus strains (ATCC 25923, 29213 and 19636, methicillin-resistant) and Pseudomonas aeruginosa strains (ATCC 27853 and 9027, ampicillin-resistant).
(§2) The microdilution method of National Committee for Clinical Laboratory Standards (NCCLS) is used to evaluate ‘The minimal inhibition concentration (MIC)’. The minimum concentration that can inhibit 90% or more microbes is the ‘minimal inhibition concentration’.
(§3) In the microdilution method, the 1 μl peptide solution (The concentration is between the range of 5000 μg/ml to 78.1 μg/ml) and the 99 μl inoculums (5×10^5 CFU/ml) is mixed incubated in 96-well culture dish coated with polyethylene under 37° C. for 16 hr. Then evaluated the turbidity in O.D.600 by ELISA plate reader (Thermo Max, Molecular Devices, Sunnyvale, Calif.). Take the Muller-Hinton Broth (MHB) and inoculums suspension with adding peptides as negative and positive control group relatively. The result of MIC is the minimum concentration of peptides that can inhibit the bacteria growth (equal to or more than 90%).

[6] = tested on: Staphylococcus aureus strains ATCC 29213; experiment: as above; format: cell-based
Excerpt: as §1, §2, §3

[7] = tested on: Staphylococcus aureus strains ATCC 19636; experiment: as above; format: cell-based
Excerpt: as §1, §2, §3

[8] = tested on: Staphylococcus aureus strains ATCC 25923; experiment: as above; format: cell-based
Excerpt: as §1, §2, §3

[9] = tested on: Pseudomonas aeruginosa strains ATTC 9027; experiment: as above; format: cell-based
Excerpt: as §1, §2, §3

[10] = tested on: Pseudomonas aeruginosa strains ATCC 27853; experiment: as above; format: cell-based
Excerpt: as §1, §2, §3

[11] = tested on: S. aureus ATCC 19636; experiment: Antibacterial ability in different MgCl2 concentration; format: cell-based
[12] = tested on: P. arugenosa ATCC 9027; experiment: Antibacterial ability in different salt (NaCl) concentration, LYM medium
[13] = tested on: S. aureus ATCC 25923; experiment: Antibacterial ability in different MgCl2 concentration; format: cell-based
[14] = tested on: E. coli ATCC 25922; experiment: Antibacterial ability in different salt (NaCl) concentration, LYM medium
[15] = tested on: S. aureus ATCC 29213; experiment: as above
[16] = tested on: P. arugenosa ATCC 9027; experiment: Antibacterial ability in different MgCl2 concentration; format: cell-based
[17] = tested on: S. aureus ATCC 25923; experiment: Antibacterial ability in different salt (NaCl) concentration, LYM medium
[18] = tested on: S. aureus ATCC 29213; experiment: Antibacterial ability in different MgCl2 concentration; format: cell-based

antibacterial ability (MIC) ([1]; Control group): 12.5 µg/mL
antibacterial ability (MIC) ([1]; MgCl2 0.5 mM): 12.5 µg/mL
antibacterial ability (MIC) ([1]; MgCl2 1.5 mM): 25 µg/mL
antibacterial ability (MIC) ([1]; MgCl2 2.5 mM): 25 µg/mL
antibacterial ability (MIC) ([2]; Control group): 25 µg/mL
antibacterial ability (MIC) ([2]; MgCl2 0.5 mM): 50 µg/mL
antibacterial ability (MIC) ([2]; MgCl2 1.5 mM): 50 µg/mL
antibacterial ability (MIC) ([2]; MgCl2 2.5 mM): 50 µg/mL
antibacterial ability (MIC) ([3]; NaCl 50 mM): 50
antibacterial ability (MIC) ([3]; NaCl 100 mM): 50
antibacterial ability (MIC) ([3]; NaCl 200 mM): >50
antibacterial ability (MIC) ([3]; NaCl 300 mM): >50
antibacterial ability (MIC) ([4]; NaCl 50 mM): 50
antibacterial ability (MIC) ([4]; NaCl 100 mM): 50
antibacterial ability (MIC) ([4]; NaCl 200 mM): >50
antibacterial ability (MIC) ([4]; NaCl 300 mM): >50
minimal inhibition concentration (MIC) [5]: >50
minimal inhibition concentration (MIC) [6]: >50
minimal inhibition concentration (MIC) [7]: >50
minimal inhibition concentration (MIC) [8]: >50
minimal inhibition concentration (MIC) [9]: >50
minimal inhibition concentration (MIC) [10]: >50
antibacterial ability (MIC) ([11]; Control group): 50 µg/mL
antibacterial ability (MIC) ([11]; MgCl2 0.5 mM): > 50 µg/mL
antibacterial ability (MIC) ([11]; MgCl2 1.5 mM): > 50 µg/mL
antibacterial ability (MIC) ([11]; MgCl2 2.5 mM): > 50 µg/mL
antibacterial ability (MIC) ([12]; NaCl 50 mM): 50
antibacterial ability (MIC) ([12]; NaCl 100 mM): 50
antibacterial ability (MIC) ([12]; NaCl 200 mM): >50
antibacterial ability (MIC) ([12]; NaCl 300 mM): >50
antibacterial ability (MIC) ([13]; Control group): 12.5 µg/mL
antibacterial ability (MIC) ([13]; MgCl2 0.5 mM): 50 µg/mL
antibacterial ability (MIC) ([13]; MgCl2 1.5 mM): 50 µg/mL
antibacterial ability (MIC) ([13]; MgCl2 2.5 mM): 50 µg/mL
antibacterial ability (MIC) ([14]; NaCl 50 mM): 50
antibacterial ability (MIC) ([14]; NaCl 100 mM): 50
antibacterial ability (MIC) ([14]; NaCl 200 mM): >50
antibacterial ability (MIC) ([14]; NaCl 300 mM): >50
antibacterial ability (MIC) ([15]; NaCl 50 mM): 50
antibacterial ability (MIC) ([15]; NaCl 100 mM): 50
antibacterial ability (MIC) ([15]; NaCl 200 mM): >50
antibacterial ability (MIC) ([15]; NaCl 300 mM): >50
antibacterial ability (MIC) ([16]; Control group): 12.5 µg/mL
antibacterial ability (MIC) ([16]; MgCl2 0.5 mM): > 50 µg/mL
antibacterial ability (MIC) ([16]; MgCl2 1.5 mM): > 50 µg/mL
antibacterial ability (MIC) ([16]; MgCl2 2.5 mM): > 50 µg/mL
antibacterial ability (MIC) ([17]; NaCl 50 mM): 50
antibacterial ability (MIC) ([17]; NaCl 100 mM): 50
antibacterial ability (MIC) ([17]; NaCl 200 mM): >50
antibacterial ability (MIC) ([17]; NaCl 300 mM): >50
antibacterial ability (MIC) ([18]; Control group): 12.5 µg/mL
antibacterial ability (MIC) ([18]; MgCl2 0.5 mM): 12.5 µg/mL
antibacterial ability (MIC) ([18]; MgCl2 1.5 mM): 25 µg/mL
antibacterial ability (MIC) ([18]; MgCl2 2.5 mM): 25 µg/mL
Compound: C[C@H](N)C(=O)N[C@@H](CCCCN)C(=O)N[C@@H](CCCNC(=N)N)C(=O)N[C@@H](Cc1c[nH]cn1)C(=O)N[C@@H](Cc1c[nH]cn1)C(=O)NCC(=O)N[C@@H](Cc1ccc(O)cc1)C(=O)N[C@@H](CCCCN)C(=O)N[C@@H](CCCNC(=N)N)C(=O)N[C@@H](CCCCN)C(=O)N[C@@H](Cc1ccccc1)C(=O)N[C@@H](Cc1c[nH]cn1)C(N)=O [P113, AKRHHGYKRKFH-NH2 (SEQ ID NO: 1)] (H-AKRHHGYKRKFH-NH2; N-terminus assumed)
